Reference: patent publication US9504669B2, “Spliceostatin analogs and methods for their preparation” (PFIZER INC., priority 2012, dated 2016)

Experiments:
[1] = test system: N87 (gastric cancer) cells; experiment: In vitro cell assay (MTS cell viability), N87; assay type: cell-based; conditions: 96 h, free compounds (natural products and synthetic analogs); cell viability 96 hours after treatment
Description: (§1) Target expressing (BT474 (breast cancer), N87 (gastric cancer), HCC1954 (breast cancer), MDA-MB-361-DYT2 (breast cancer)) or non-expressing (MDA-MB-468) cells were seeded in 96-well cell culture plates for 24 hours before treatment. Cells were treated with 3-fold serially diluted antibody-drug conjugates or free compounds (i.e., no antibody conjugated to the drug) in duplicate at 10 concentrations. Cell viability was determined by CellTiter 96® AQueous One Solution Cell Proliferation MTS Assay (Promega, Madison Wis.) 96 hours after treatment. Relative cell viability was determined as percentage of untreated control. IC50 values were calculated using a four parameter logistic model #203 with XLfit v4.2 (IDBS, Guildford, Surry, UK). The potency ranged upward from 0.0002 nm. Similar procedures and techniques were employed.

[2] = test system: MDA-MB-361-DYT2 (breast cancer) cells; experiment: In vitro cell assay (MTS cell viability), MDA-MB-361-DYT2; assay type: cell-based; conditions: 96 h, free compounds (natural products and synthetic analogs); cell viability 96 hours after treatment
Description: as §1

| Compound | IC50 [1] [nM] | IC50 [2] [nM] |
| --- | --- | --- |
| CC(=O)O[C@@H](C)/C=C\C(=O)N[C@@H]1C[C@H](C)[C@H](C/C=C(C)/C=C/[C@H]2O[C@H](CC(=O)N[C@H]3C[C@@H](O)C3)C[C@@]3(CO3)[C@@H]2O)O[C@@H]1C [#B142, (2S,3Z)-5-{[(2R,3R,5S,6S)-6-{(2E,4E)-5-[(3R,4R,5R,7S)-4-hydroxy-7-{2-[(cis-3-hydroxycyclobutyl)amino]-2-oxoethyl}-1,6-dioxaspiro[2.5]oct-5-yl]-3-methylpenta-2,4-dien-1-yl}-2,5-dimethyltetrahydro-2H-pyran-3-yl]amino}-5-oxopent-3-en-2-yl acetate] | 11.2 | 55.5 |
| CNNC(=O)C[C@@H]1C[C@@]2(CO2)[C@H](O)[C@@H](/C=C/C(C)=C/C[C@@H]2O[C@H](C)[C@H](NC(=O)/C=C\[C@H](C)OC(C)=O)C[C@@H]2C)O1 [#B143, (2S,3Z)-5-({(2R,3R,5S,6S)-6-[(2E,4E)-5-{(3R,4R,5R,7S)-4-hydroxy-7-[2-(2-methylhydrazinyl)-2-oxoethyl]-1,6-dioxaspiro[2.5]oct-5-yl}-3-methylpenta-2,4-dien-1-yl]-2,5-dimethyltetrahydro-2H-pyran-3-yl}amino)-5-oxopent-3-en-2-yl acetate] | 2.43 | 9.51 |
| CC(=O)O[C@@H](C)/C=C\C(=O)N[C@@H]1C[C@H](C)[C@H](C/C=C(C)/C=C/[C@H]2O[C@H](CC(=O)N(C)N)C[C@@]3(CO3)[C@@H]2O)O[C@@H]1C [#B144, (2S,3Z)-5-({(2R,3R,5S,6S)-6-[(2E,4E)-5-{(3R,4R,5R,7S)-4-hydroxy-7-[2-(1-methylhydrazinyl)-2-oxoethyl]-1,6-dioxaspiro[2.5]oct-5-yl}-3-methylpenta-2,4-dien-1-yl]-2,5-dimethyltetrahydro-2H-pyran-3-yl}amino)-5-oxopent-3-en-2-yl acetate] | 0.982 | 6.1 |
| CNN(C)C(=O)C[C@@H]1C[C@@]2(CO2)[C@H](O)[C@@H](/C=C/C(C)=C/C[C@@H]2O[C@H](C)[C@H](NC(=O)/C=C\[C@H](C)OC(C)=O)C[C@@H]2C)O1 [#B145, (2S,3Z)-5-({(2R,3R,5S,6S)-6-[(2E,4E)-5-{(3R,4R,5R,7S)-7-[2-(1,2-dimethylhydrazinyl)-2-oxoethyl]-4-hydroxy-1,6-dioxaspiro[2.5]oct-5-yl}-3-methylpenta-2,4-dien-1-yl]-2,5-dimethyltetrahydro-2H-pyran-3-yl}amino)-5-oxopent-3-en-2-yl acetate] | 0.408 | 2.03 |
| COC(=O)C[C@@H]1C[C@@]2(CO2)C[C@@H](/C=C/C(C)=C/C[C@@H]2O[C@H](C)[C@H](NC(=O)/C=C\[C@H](C)OC(=O)CCCSC)C[C@@H]2C)O1 [#B149, (2S,3Z)-5-{[(2R,3R,5S,6S)-6-{(2E,4E)-5-[(3S,5S,7S)-7-(2-methoxy-2-oxoethyl)-1,6-dioxaspiro[2.5]oct-5-yl]-3-methylpenta-2,4-dien-1-yl}-2,5-dimethyltetrahydro-2H-pyran-3-yl]amino}-5-oxopent-3-en-2-yl 4-(methylsulfanyl)butanoate] | > 100 | > 100 |
| CC(=O)O[C@@H](C)/C=C\C(=O)N[C@@H]1C[C@H](C)[C@H](C/C=C(C)/C=C/[C@H]2O[C@H](CC(=O)NN(C)C)C[C@@]3(CO3)[C@@H]2O)O[C@@H]1C [#B177, (2S,3Z)-5-({(2R,3R,5S,6S)-6-[(2E,4E)-5-{(3R,4R,5R,7S)-7-[2-(2,2-dimethylhydrazinyl)-2-oxoethyl]-4-hydroxy-1,6-dioxaspiro[2.5]oct-5-yl}-3-methylpenta-2,4-dien-1-yl]-2,5-dimethyltetrahydro-2H-pyran-3-yl}amino)-5-oxopent-3-en-2-yl acetate] | 1.61 | 5.65 |
| CC(=O)O[C@@H](C)/C=C\C(=O)N[C@@H]1C[C@H](C)[C@H](C/C=C(C)/C=C/[C@H]2O[C@H](CC(=O)N3CCCCN3)C[C@@]3(CO3)[C@@H]2O)O[C@@H]1C [#B179, (2S,3Z)-5-({(2R,3R,5S,6S)-6-[(2E,4E)-5-{(3R,4R,5R,7S)-4-hydroxy-7-[2-oxo-2-(tetrahydropyridazin-1(2H)-yl)ethyl]-1,6-dioxaspiro[2.5]oct-5-yl}-3-methylpenta-2,4-dien-1-yl]-2,5-dimethyltetrahydro-2H-pyran-3-yl}amino)-5-oxopent-3-en-2-yl acetate] | 0.299 | 1.29 |
| CC(/C=C/[C@H]1O[C@H](CC(=O)NN)C[C@@]2(CO2)[C@@H]1O)=C\C[C@@H]1O[C@H](C)[C@H](NC(=O)/C=C\[C@H](C)O)C[C@@H]1C [#B209, (2Z,4S)—N-[(2R,3R,5S,6S)-6-{(2E,4E)-5-[(3R,4R,5R,7S)-7-(2-hydrazinyl-2-oxoethyl)-4-hydroxy-1,6-dioxaspiro[2.5]oct-5-yl]-3-methylpenta-2,4-dien-1-yl}-2,5-dimethyltetrahydro-2H-pyran-3-yl]-4-hydroxypent-2-enamide] | 60.6 | > 100 |
| COC(=O)C[C@@H]1C[C@@]2(CO2)[C@H](O)[C@@H](/C=C/C(C)=C/C[C@@H]2O[C@H](C)[C@H](NC(=O)/C=C\[C@H](C)OC)C[C@@H]2C)O1 [#B229, methyl [(3R,5S,7R,8R)-8-hydroxy-7-{(1E,3E)-5-[(2S,3S,5R,6R)-5-{[(2Z,4S)-4-methoxypent-2-enoyl]amino}-3,6-dimethyltetrahydro-2H-pyran-2-yl]-3-methylpenta-1,3-dien-1-yl}-1,6-dioxaspiro[2.5]oct-5-yl]acetate] | 3.6 | 9.14 |
| COC(=O)C[C@@H]1C[C@@]2(CO2)[C@H](O)[C@@H](/C=C/C(C)=C/C[C@@H]2O[C@H](C)[C@H](NC(=O)/C=C\[C@H](C)O)C[C@@H]2C)O1 [#B235, methyl [(3R,5S,7R,8R)-8-hydroxy-7-{(1E,3E)-5-[(2S,3S,5R,6R)-5-{[(2Z,4S)-4-hydroxypent-2-enoyl]amino}-3,6-dimethyltetrahydro-2H-pyran-2-yl]-3-methylpenta-1,3-dien-1-yl}-1,6-dioxaspiro[2.5]oct-5-yl]acetate] | 16.4 | 36.8 |
| COC(=O)C[C@@H]1C[C@@]2(CO2)[C@H](OC)[C@@H](/C=C/C(C)=C/C[C@@H]2O[C@H](C)[C@H](NC(=O)/C=C\[C@H](C)OC)C[C@@H]2C)O1 [#B240, methyl [(3R,5S,7R,8R)-8-methoxy-7-{(1E,3E)-5-[(2S,3S,5R,6R)-5-{[(2Z,4S)-4-methoxypent-2-enoyl]amino}-3,6-dimethyltetrahydro-2H-pyran-2-yl]-3-methylpenta-1,3-dien-1-yl}-1,6-dioxaspiro[2.5]oct-5-yl]acetate] | 9.79 | 5.05 |
| CC(=O)O[C@@H](C)/C=C\C(=O)N[C@@H]1C[C@H](C)[C@H](C/C=C(C)/C=C/[C@H]2O[C@H](CNC(N)=O)C[C@@]3(CO3)[C@@H]2O)O[C@@H]1C [#B241, (2S,3Z)-5-({(2R,3R,5S,6S)-6-[(2E,4E)-5-{(3R,4R,5R,7S)-7-[(carbamoylamino)methyl]-4-hydroxy-1,6-dioxaspiro[2.5]oct-5-yl}-3-methylpenta-2,4-dien-1-yl]-2,5-dimethyltetrahydro-2H-pyran-3-yl}amino)-5-oxopent-3-en-2-yl acetate] | 21.3 | 43.6 |
